Experimental data taken from PubChem BioAssay AID1963833 (Molecular Pharmacology Branch, DTP, NCI, 2024).

Test system: 883617-216-R-J1-PDC complex spheroid viability
Assay: Anticancer human tumor 883617-216-R-J1-PDC patient-derived bladder carcinoma cell line growth inhibition [POLQ]
Settings: for IC50: curve of first compound; for viability, T/C: stronger effect = lower value
Method: Multicellular complex tumor spheroid response to Polymerase (POL) inhibitors (novobiocin, ART-558, RP6685) in combination with a variety of drugs and investigational agents in selected tumor cell lines
The POL inhibitors (novobiocin, ART-558, and RP6685) were evaluated both individually and in combination with standard of care and investigational anticancer small molecules within a complex spheroid model of solid tumors. . Complex spheroids include a stromal component modeled by human endothelial cells (HUVEC) and fibroblasts modeled by human mesenchymal stem cells (MSCs). The concentration ranges selected for each drug and investigational agent were based upon clinically achievable concentrations if the clinical Cmax of the agent was known.
Compounds. The drugs and investigational agents: novobiocin (NSC847541), ART-558 (NSC835418), RP-6685 (NSC848927), peposertib (NSC802822), ceralasertib (NSC780249), elimusertib (NSC800525), camonsertib (NSC841442), AZD-1390 (NSC803789), olaparib (NSC753686), talazoparib (NSC767125), rucaparib (NSC756644), sotorasib (NSC818433), MRTX-1133 (NSC836407), SN-38 (NSC673596), topotecan (NSC609699), epotoside (NSC141540), doxorubicin (NSC123127), gemcitabine (NSC613327), 5-fluorouracil (NSC19893), paclitaxel (NSC125973), vemurafenib (NSC761431), MSA-2 (NSC828583), SN-011 (NSC837082), adavosertib (NSC754352), prexasertib (NSC758257), carboplatin (NSC241240) and oxaliplatin (NSC266046), were obtained from the National Cancer Institute (NCI) Developmental Therapeutics Program Chemical Repository (21). The FDA-approved anticancer drug set is available from the Developmental Therapeutics Program at https://dtp.cancer.gov/organization/dscb/obtaining/. […] The stock solutions were prepared in dimethyl sulfoxide (DMSO, Sigma-Aldrich, St. Louis, MO, cat. D2650), except for the platinum compounds which were prepared in saline (Quality Biological, Gaithersburg, MD, cat. 114-055-101), at 800-fold the tested concentration and stored at -70 degrees C prior to their use. All drugs and investigational agents were tested over a range starting from a high concentration at or near the clinical Cmax and decreasing in half-log increments. If the clinical Cmax for an agent had not been determined, the highest concentration tested was 10 microM, except for SN-38, which was tested at a high concentration of 1 microM.
Cell Culture. All cells were maintained in an incubator at 37 degrees C and 5% CO2 with 95% humidity. The PDC lines were cultured according to standard operating procedures established by the NCI PDMR (https://pdmr.cancer.gov). Table 3 of the manuscript, lists the cell lines along with the number of the three cell types plated to form the mct-spheroids and media for tumor cell growth. After thawing, all PDC lines, except 997537-175-T-J1-PDC and 415267-285-R-J2-PDC, were cultured in Matrigel-coated flasks prepared with a working solution of 1X Ham's F-12 nutrient mix, without supplementation (Thermo Fisher Scientific, cat. 11765054), 100 U/mL penicillin-streptomycin (Thermo Fisher Scientific, cat. 15140122), and 2.5% Matrigel (Corning Inc., Corning, NY, cat. 354248) for the first three passages. The two PDC lines 997537-175-T-J1-PDC and 415267-285-R-J2-PDC were cultured on uncoated flasks. The 857933-349-R-J2-PDC line was cultured in 6C/Colon 1B media containing advanced DMEM/F-12 (Thermo Fisher Scientific, cat. 12634028), 10 mM HEPES (Thermo Fisher Scientific, cat. 15630080), 1X GlutaMAX supplement (Thermo Fisher Scientific, cat. 35050061), 0.1 mg/mL primocin (InvivoGen, San Diego, CA, cat. ant-pm-2), 10% defined fetal bovine serum, heat inactivated (HyClone Laboratories Inc., Logan, UT, cat. SH30070.03HI), 50% L-WRN conditioned media (ATCC, cat. CRL-3276), 1.25 mM N-Acetyl-L-cysteine (Sigma-Aldrich, cat. A9165), 10 mM nicotinamide (Sigma-Aldrich, cat. N0636), 1X B-27 supplement (Thermo Fisher Scientific, cat. 17504044), 1X N-2 supplement (Thermo Fisher Scientific, cat. […]

[1] = second compound 0.0316 µM, first compound 0.0316 µM
[2] = second compound 0.0316 µM, first compound 0.1 µM
[3] = second compound 0.1 µM, first compound 0.0316 µM
[4] = second compound 0.1 µM, first compound 0.1 µM
[5] = second compound 0.316 µM, first compound 0.0316 µM
[6] = second compound 0.316 µM, first compound 0.1 µM
[7] = second compound 1 µM, first compound 0.0316 µM
[8] = second compound 1 µM, first compound 0.1 µM
[9] = second compound 3.16 µM, first compound 0.0316 µM
[10] = second compound 3.16 µM, first compound 0.1 µM
[11] = second compound 10 µM, first compound 0.0316 µM
[12] = second compound 10 µM, first compound 0.1 µM
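Also: spheroids exposed to compounds for seven days before readout.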
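For viability, T/C in this document: 100% = DMSO vehicle control viability.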

Cn1ncnc1[C@H]1c2n[nH]c(=O)c3cc(F)cc(c23)N[C@@H]1c1ccc(F)cc1 + Cc1cccc(N(C)C(=O)C2C(O)CCN2c2nc(C)cc(C(F)(F)F)c2C#N)c1
IC50 (second compound 0.0316 µM): > 0.1 µM
IC50 (second compound 0.1 µM): > 0.1 µM
IC50 (second compound 0.316 µM): > 0.1 µM
IC50 (second compound 1 µM): > 0.1 µM
IC50 (second compound 3.16 µM): > 0.1 µM
IC50 (second compound 10 µM): > 0.1 µM
viability, T/C (second compound 0.0316 µM, first compound 0.000316 µM): 99.2%
viability, T/C (second compound 0.0316 µM, first compound 0.001 µM): 101%
viability, T/C (second compound 0.0316 µM, first compound 0.00316 µM): 93.4%
viability, T/C (second compound 0.0316 µM, first compound 0.01 µM): 78%
viability, T/C [1]: 74.4%
viability, T/C [2]: 73.7%
viability, T/C (second compound 0.1 µM, first compound 0.000316 µM): 96.3%
viability, T/C (second compound 0.1 µM, first compound 0.001 µM): 96.3%
viability, T/C (second compound 0.1 µM, first compound 0.00316 µM): 96.9%
viability, T/C (second compound 0.1 µM, first compound 0.01 µM): 86.6%
viability, T/C [3]: 82.9%
viability, T/C [4]: 76.7%
viability, T/C (second compound 0.316 µM, first compound 0.000316 µM): 95.7%
viability, T/C (second compound 0.316 µM, first compound 0.001 µM): 98.3%
viability, T/C (second compound 0.316 µM, first compound 0.00316 µM): 94.2%
viability, T/C (second compound 0.316 µM, first compound 0.01 µM): 81.1%
viability, T/C [5]: 72.8%
viability, T/C [6]: 64.2%
viability, T/C (second compound 1 µM, first compound 0.000316 µM): 98.1%
viability, T/C (second compound 1 µM, first compound 0.001 µM): 98.6%
viability, T/C (second compound 1 µM, first compound 0.00316 µM): 88.6%
viability, T/C (second compound 1 µM, first compound 0.01 µM): 84.8%
viability, T/C [7]: 83%
viability, T/C [8]: 74%
viability, T/C (second compound 3.16 µM, first compound 0.000316 µM): 109%
viability, T/C (second compound 3.16 µM, first compound 0.001 µM): 96.8%
viability, T/C (second compound 3.16 µM, first compound 0.00316 µM): 94.8%
viability, T/C (second compound 3.16 µM, first compound 0.01 µM): 84.5%
viability, T/C [9]: 81.8%
viability, T/C [10]: 69.2%
viability, T/C (second compound 10 µM, first compound 0.000316 µM): 103%
viability, T/C (second compound 10 µM, first compound 0.001 µM): 100%
viability, T/C (second compound 10 µM, first compound 0.00316 µM): 98.4%
viability, T/C (second compound 10 µM, first compound 0.01 µM): 90.8%
viability, T/C [11]: 91.3%
viability, T/C [12]: 80.6%

O=C(c1cc(Cc2n[nH]c(=O)c3ccccc23)ccc1F)N1CCN(C(=O)C2CC2)CC1 + Cc1cccc(N(C)C(=O)C2C(O)CCN2c2nc(C)cc(C(F)(F)F)c2C#N)c1
IC50 (second compound 0.0316 µM): > 10 µM
IC50 (second compound 0.1 µM): > 10 µM
IC50 (second compound 0.316 µM): > 10 µM
IC50 (second compound 1 µM): > 10 µM
IC50 (second compound 3.16 µM): > 10 µM
IC50 (second compound 10 µM): > 10 µM
viability, T/C [1]: 111%
viability, T/C [2]: 89.4%
viability, T/C (second compound 0.0316 µM, first compound 0.316 µM): 82.2%
viability, T/C (second compound 0.0316 µM, first compound 1 µM): 94.9%
viability, T/C (second compound 0.0316 µM, first compound 3.16 µM): 79.3%
viability, T/C (second compound 0.0316 µM, first compound 10 µM): 64.6%
viability, T/C [3]: 111%
viability, T/C [4]: 94%
viability, T/C (second compound 0.1 µM, first compound 0.316 µM): 91%
viability, T/C (second compound 0.1 µM, first compound 1 µM): 90.2%
viability, T/C (second compound 0.1 µM, first compound 3.16 µM): 80.3%
viability, T/C (second compound 0.1 µM, first compound 10 µM): 66.7%
viability, T/C [5]: 112%
viability, T/C [6]: 90.3%
viability, T/C (second compound 0.316 µM, first compound 0.316 µM): 89.8%
viability, T/C (second compound 0.316 µM, first compound 1 µM): 93.1%
viability, T/C (second compound 0.316 µM, first compound 3.16 µM): 82.6%
viability, T/C (second compound 0.316 µM, first compound 10 µM): 70.4%
viability, T/C [7]: 98.7%
viability, T/C [8]: 94.1%
viability, T/C (second compound 1 µM, first compound 0.316 µM): 90.9%
viability, T/C (second compound 1 µM, first compound 1 µM): 90.5%
viability, T/C (second compound 1 µM, first compound 3.16 µM): 92%
viability, T/C (second compound 1 µM, first compound 10 µM): 66.4%
viability, T/C [9]: 93.3%
viability, T/C [10]: 94.6%
viability, T/C (second compound 3.16 µM, first compound 0.316 µM): 90.5%
viability, T/C (second compound 3.16 µM, first compound 1 µM): 78.3%
viability, T/C (second compound 3.16 µM, first compound 3.16 µM): 87.3%
viability, T/C (second compound 3.16 µM, first compound 10 µM): 71.6%
viability, T/C [11]: 114%
viability, T/C [12]: 107%
viability, T/C (second compound 10 µM, first compound 0.316 µM): 120%
viability, T/C (second compound 10 µM, first compound 1 µM): 99.9%
viability, T/C (second compound 10 µM, first compound 3.16 µM): 95%
viability, T/C (second compound 10 µM, first compound 10 µM): 77.5%
